Test results: patent US9481709B2, “Boropeptide inhibitors of enteropeptidase and their uses in treatment of obesity, overweight and/or diseases associated with an abnormal fat metabolism” (OBE THERAPY BIOTECHNOLOGY, priority 2007, dated 2016)

How the values were obtained:
Enteropeptidase [1] = biological target: T1, Enteropeptidase (Homo sapiens, UniProt P98073); assay: Enteropeptidase assay (Np Tosyl Gly Pro Arg pNa substrate, absorbance 405 nm); format: biochemical; set-up: purchased RD system 1585SE; conditions: in vitro, 30 min preincubation at RT
Method: 2.1. Enteropeptidase Assay
Activation of the Enteropeptidase
A mix of enteropeptidase at 58.8 nM (final) and thermolysine at 1.58 ng/I (final) in TCN buffer was prepared; the mix was incubated at 37° C. during 30 minutes for activation. Phosphoramidon (10 μM final) was added to stop the activation by thermolysine.
Measurement of Enteropeptidase Activity without Inhibitor (Positive Control)
In 17 μl of TCN, 1 μl of active enzyme (2.9 nm final) and 2 μl Np Tosyl Gly Pro Arg pNa (1 mM final) were mixed, just before reading. The Absorbance was measured at 405 nm on EnVision (Perkin Elmer).
(§1) Inhibition in 384 Well Plate Small Volume ([…])
In 15 μl of TCN, 1 μl of active enzyme and 2 μl of Inhibitor (compound of the invention) at different concentrations were mixed, and incubated at RT (room temperature) for 30 minutes; 2 μl Np Tosyl Gly Pro Arg pNa (1 mM final) was added just before reading. The Absorbance was measured at 405 nm on EnVision (Perkin Elmer).
Target sequence in this assay (P98073 785-1019 limits assumed): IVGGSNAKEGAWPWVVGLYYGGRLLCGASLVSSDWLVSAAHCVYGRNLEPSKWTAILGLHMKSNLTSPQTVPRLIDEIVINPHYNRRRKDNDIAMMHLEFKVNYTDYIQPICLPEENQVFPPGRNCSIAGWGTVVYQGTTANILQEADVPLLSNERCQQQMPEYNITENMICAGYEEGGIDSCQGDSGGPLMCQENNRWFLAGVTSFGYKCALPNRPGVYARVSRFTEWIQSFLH
Target sequence in this assay (P98073 2-784 partner limits assumed): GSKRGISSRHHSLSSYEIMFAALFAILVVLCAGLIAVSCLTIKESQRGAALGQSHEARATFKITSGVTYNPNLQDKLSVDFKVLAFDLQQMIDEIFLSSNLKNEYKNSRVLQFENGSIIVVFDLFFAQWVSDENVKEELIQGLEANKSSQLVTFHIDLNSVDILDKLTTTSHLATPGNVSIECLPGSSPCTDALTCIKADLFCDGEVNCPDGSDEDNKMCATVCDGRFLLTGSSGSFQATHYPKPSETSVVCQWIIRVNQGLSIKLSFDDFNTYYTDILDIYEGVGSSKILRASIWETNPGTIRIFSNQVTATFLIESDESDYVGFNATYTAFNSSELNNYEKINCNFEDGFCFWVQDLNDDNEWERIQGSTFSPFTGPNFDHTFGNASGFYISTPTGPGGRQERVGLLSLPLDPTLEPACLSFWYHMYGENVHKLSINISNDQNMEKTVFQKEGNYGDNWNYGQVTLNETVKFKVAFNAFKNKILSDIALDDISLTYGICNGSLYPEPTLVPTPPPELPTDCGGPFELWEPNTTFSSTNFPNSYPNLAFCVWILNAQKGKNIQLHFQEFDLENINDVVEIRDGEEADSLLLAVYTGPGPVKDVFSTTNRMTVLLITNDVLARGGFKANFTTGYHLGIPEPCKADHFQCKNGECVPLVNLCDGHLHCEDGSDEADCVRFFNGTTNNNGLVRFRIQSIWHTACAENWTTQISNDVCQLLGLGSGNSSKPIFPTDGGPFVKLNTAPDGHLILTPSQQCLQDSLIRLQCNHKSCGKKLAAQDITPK

[2] = biological target: T2, Thrombin from human plasma (Homo sapiens, UniProt P00734); assay: Thrombin assay; format: biochemical; conditions: in vitro
T2 construct: Thrombin from human plasma; purchased SIGMA T1063; host or cells: human plasma
Method: (§2) 2.2. Thrombin, Trypsin, Kallikrein, Plasmin, Chymotrypsin and Elastase Assay
(§3) Table IV below lists the final concentrations of the tested enzymes and the corresponding substrates, in the determination of the IC50 without inhibitor (positive control) and in inhibition protocols:
(§4) Measurement without Inhibitor (Positive Control)
(§5) In 17 μl of TN, 1 μl of enzyme and 2 μl of substrate was mixed, just before reading; The Absorbance was measured at 405 nm on EnVision (Perkin Elmer).
as §1
(§6) In 15 μl of TN, 1 μl of enzyme and 2 μl of Inhibitor (compound of the invention) at different concentrations were mixed and incubated at RT for 30 minutes; 2 μl of substrate was added, just before reading; The Absorbance was measured at 405 nm on EnVision (Perkin Elmer).

[3] = biological target: T3, Kallikrein from human plasma (Homo sapiens, UniProt P03952); assay: Kallikrein assay; format: biochemical; conditions: in vitro
T3 construct: Kallikrein from human plasma; purchased SIGMA K2638; host or cells: human plasma
T3 sequence (P03952 391-638 limits assumed): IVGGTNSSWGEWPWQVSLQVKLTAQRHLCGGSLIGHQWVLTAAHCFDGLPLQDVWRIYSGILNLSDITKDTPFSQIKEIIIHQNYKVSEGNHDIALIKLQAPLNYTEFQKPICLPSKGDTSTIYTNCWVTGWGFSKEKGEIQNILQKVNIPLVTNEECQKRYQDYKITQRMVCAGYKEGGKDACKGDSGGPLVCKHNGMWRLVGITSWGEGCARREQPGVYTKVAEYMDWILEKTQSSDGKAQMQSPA
T3 sequence (P03952 20-390 partner limits assumed): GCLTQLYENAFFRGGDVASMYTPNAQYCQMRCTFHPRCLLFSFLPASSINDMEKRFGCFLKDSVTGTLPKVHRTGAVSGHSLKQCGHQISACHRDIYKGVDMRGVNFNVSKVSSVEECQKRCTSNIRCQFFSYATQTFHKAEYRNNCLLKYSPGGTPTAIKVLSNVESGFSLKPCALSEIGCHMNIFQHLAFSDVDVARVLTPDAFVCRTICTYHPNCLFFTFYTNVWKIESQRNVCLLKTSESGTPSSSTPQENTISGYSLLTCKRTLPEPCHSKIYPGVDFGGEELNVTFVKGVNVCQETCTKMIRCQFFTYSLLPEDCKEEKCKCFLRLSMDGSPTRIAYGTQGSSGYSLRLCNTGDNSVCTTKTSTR
Method: as §2, §3, §4, §5, §1, §6

[4] = biological target: T4, Plasmin from human plasma (Homo sapiens, UniProt P00747); assay: Plasmin assay; format: biochemical; conditions: in vitro
T4 construct: Plasmin from human plasma; purchased SIGMA P1867; host or cells: human plasma
T4 sequence (P00747 581-810 limits assumed): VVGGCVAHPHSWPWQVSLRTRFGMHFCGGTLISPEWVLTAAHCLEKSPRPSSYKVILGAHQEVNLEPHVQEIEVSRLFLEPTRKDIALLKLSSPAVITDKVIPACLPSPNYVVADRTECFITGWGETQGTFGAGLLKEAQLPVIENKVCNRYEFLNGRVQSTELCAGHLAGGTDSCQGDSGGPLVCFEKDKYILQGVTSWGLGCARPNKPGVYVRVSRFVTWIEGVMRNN
T4 sequence (P00747 98-580 partner limits assumed): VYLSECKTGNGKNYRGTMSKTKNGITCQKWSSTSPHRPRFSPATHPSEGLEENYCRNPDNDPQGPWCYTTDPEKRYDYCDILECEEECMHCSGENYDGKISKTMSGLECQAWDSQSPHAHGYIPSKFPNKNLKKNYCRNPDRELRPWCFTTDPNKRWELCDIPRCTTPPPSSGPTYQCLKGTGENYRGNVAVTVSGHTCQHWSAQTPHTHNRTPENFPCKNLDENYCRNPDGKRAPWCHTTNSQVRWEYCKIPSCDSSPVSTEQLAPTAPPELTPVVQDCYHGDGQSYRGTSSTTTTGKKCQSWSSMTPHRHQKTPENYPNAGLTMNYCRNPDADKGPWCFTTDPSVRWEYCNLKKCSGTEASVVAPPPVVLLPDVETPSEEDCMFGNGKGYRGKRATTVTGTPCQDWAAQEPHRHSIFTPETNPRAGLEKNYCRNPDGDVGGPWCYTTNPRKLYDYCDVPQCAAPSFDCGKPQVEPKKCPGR
Method: as §2, §3, §4, §5, §1, §6

Enteropeptidase [5] = biological target: T1, Enteropeptidase; assay: Enteropeptidase
From the text: (§7) Table printed on a drawing sheet, Fig. 5
Head of the field: Enteropeptidase
(§8) The patent's description of the figure: FIG. 5 is a Table showing the IC 50 (in nM) of enteropeptidase, various serine proteases and other enzyme families, in the presence of compounds OBE 1999, OBE 2000, OBE 2001 or OBE 2002.
(§9) First copying reader's note: Each column is one compound; each row gives its IC50 against the named enzyme.
Where the first naming reader finds the target: head: Enteropeptidase
Target sequence in this assay (P98073 2-1019): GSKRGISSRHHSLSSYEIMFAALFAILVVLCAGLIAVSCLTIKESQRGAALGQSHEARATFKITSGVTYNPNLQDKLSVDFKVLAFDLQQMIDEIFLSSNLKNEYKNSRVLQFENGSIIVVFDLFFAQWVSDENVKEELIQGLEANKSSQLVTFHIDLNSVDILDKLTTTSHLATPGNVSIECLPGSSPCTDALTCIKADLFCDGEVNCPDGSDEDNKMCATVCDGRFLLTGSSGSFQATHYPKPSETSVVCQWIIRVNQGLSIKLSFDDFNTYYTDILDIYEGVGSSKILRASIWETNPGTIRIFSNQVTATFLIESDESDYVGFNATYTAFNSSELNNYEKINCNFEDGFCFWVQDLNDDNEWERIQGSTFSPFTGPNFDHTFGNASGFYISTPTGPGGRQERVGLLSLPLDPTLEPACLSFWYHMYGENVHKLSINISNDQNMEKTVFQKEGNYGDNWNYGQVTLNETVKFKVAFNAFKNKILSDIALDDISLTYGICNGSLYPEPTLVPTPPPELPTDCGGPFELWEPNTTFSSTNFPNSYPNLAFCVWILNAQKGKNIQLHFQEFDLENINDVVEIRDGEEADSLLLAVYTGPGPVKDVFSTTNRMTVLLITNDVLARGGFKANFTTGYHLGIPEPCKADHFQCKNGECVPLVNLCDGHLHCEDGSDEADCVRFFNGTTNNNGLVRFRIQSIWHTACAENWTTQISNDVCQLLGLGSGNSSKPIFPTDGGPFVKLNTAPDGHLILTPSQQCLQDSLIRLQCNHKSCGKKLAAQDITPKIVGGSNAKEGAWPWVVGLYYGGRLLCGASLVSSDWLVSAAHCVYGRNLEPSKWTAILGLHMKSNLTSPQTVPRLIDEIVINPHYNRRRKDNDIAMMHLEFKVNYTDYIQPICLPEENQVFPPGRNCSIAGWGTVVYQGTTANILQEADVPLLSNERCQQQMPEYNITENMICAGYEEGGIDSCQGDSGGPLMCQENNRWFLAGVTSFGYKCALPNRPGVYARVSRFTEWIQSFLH

Thrombin = Thrombin (Homo sapiens, UniProt P00734); assay: Thrombin
From the text: as §7
Head of the field: Thrombin
as §8, §9
Where the first naming reader finds the target: head: Thrombin

Trypsin = Trypsin (Homo sapiens, UniProt P07477); assay: Trypsin
From the text: as §7
Head of the field: Trypsin
as §8, §9
Where the first naming reader finds the target: head: Trypsin

Plasmin = Plasmin (Homo sapiens, UniProt P00747); assay: Plasmin
Plasmin, sequence (P00747 97-810): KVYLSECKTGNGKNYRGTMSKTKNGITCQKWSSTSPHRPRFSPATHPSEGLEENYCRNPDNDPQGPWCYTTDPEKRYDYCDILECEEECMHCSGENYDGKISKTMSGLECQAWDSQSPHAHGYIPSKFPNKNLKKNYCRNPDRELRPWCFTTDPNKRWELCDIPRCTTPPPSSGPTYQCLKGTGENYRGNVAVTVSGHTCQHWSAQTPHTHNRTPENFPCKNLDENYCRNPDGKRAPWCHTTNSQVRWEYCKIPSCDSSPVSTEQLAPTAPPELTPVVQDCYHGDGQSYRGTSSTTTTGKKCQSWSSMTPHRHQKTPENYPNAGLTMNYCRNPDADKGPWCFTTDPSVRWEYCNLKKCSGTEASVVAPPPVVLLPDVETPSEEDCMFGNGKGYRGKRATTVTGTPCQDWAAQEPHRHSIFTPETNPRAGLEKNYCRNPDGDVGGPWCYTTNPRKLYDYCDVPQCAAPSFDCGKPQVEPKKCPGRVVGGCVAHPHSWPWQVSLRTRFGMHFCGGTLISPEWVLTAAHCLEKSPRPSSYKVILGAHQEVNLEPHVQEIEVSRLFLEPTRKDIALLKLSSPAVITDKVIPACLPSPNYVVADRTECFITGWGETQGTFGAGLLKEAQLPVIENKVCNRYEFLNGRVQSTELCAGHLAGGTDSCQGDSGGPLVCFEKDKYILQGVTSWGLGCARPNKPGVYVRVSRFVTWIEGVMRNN
From the text: as §7
Head of the field: Plasmin
as §8, §9
Where the first naming reader finds the target: head: Plasmin

Kallikrein = Kallikrein (Homo sapiens, UniProt P03952); assay: Kallikrein
Kallikrein, sequence (P03952 20-638): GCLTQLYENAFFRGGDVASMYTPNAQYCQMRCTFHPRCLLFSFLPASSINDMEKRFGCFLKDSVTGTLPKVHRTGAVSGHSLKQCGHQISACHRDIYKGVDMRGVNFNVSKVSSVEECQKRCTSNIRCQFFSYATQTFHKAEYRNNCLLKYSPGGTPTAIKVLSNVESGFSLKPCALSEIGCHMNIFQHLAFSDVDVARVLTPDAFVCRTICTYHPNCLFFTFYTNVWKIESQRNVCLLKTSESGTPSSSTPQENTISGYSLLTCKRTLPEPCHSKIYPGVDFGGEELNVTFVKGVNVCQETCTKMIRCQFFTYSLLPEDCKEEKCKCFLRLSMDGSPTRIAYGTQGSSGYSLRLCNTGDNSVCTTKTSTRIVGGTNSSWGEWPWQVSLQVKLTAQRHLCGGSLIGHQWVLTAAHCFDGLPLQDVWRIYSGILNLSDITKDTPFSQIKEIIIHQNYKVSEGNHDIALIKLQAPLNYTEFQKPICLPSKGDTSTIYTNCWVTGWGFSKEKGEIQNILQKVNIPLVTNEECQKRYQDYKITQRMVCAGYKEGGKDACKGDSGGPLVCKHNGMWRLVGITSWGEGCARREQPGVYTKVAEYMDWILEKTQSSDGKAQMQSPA
From the text: as §7
Head of the field: Kallikrein
as §8, §9
Where the first naming reader finds the target: head: Kallikrein

[6] = biological target: T5, Trypsin from human pancreas (Homo sapiens, UniProt P07477); assay: Trypsin assay; format: biochemical; conditions: in vitro; range printed jointly for trypsin, kallikrein and plasmin
T5 construct: Trypsin from human pancreas; purchased SIGMA T6424; host or cells: human pancreas
Method: as §2, §3, §4, §5, §1, §6

CC1(C)[C@@H]2CC3OB([C@H](CCCNC(=N)N)NC(=O)CNC(=O)[C@@H](N)CCC(=O)O)O[C@@]3(C)[C@H]1C2 (stereo partly shown) [OBE2000]
IC50 enteropeptidase (Enteropeptidase [1]): low value of IC50 | IC50 thrombin [2]: high value of IC50 | IC50 [3]: 260 nM | IC50 [4]: 7100 nM | IC50 (Enteropeptidase [5]): 68 nM | IC50 (Thrombin): 3220 nM

CC(=O)N[C@@H](CCC(=O)O)C(=O)NCC(=O)N[C@@H](CCCN=C(N)N)B(O)O [OBE2002, Acetyl-Glu-Gly-BoroArg]
IC50 (Trypsin): 10.5 nM | IC50 (Plasmin): 3800 nM | IC50 (Kallikrein): 81.4 nM | IC50 kallikrein [3]: low IC50 value | IC50 plasmin [4]: low IC50 value | IC50 (Enteropeptidase [5]): 33.6 nM

C[C@H](N)C(=O)N[C@@H](Cc1ccccc1)C(=O)N[C@@H](CCCNC(=N)N)B1OC2C[C@@H]3C[C@@H](C3(C)C)[C@]2(C)O1 (stereo partly shown) [OBE1999]
IC50 (Enteropeptidase [1]): 33 nM | IC50 (Plasmin): 29.8 nM | IC50 (Kallikrein): 7.5 nM | IC50 [3]: 7.5 to 29.8 nM | IC50 [4]: 7.5 to 29.8 nM | IC50 [6]: 7.5 to 29.8 nM | IC50 (Thrombin): 6400 nM
